For test [1], the system named is EML4-ALK A549 NSCLC cells. Description: CCK-8 proliferation assay of parental and EML4-ALK A549 NSCLC cells. In kind it is cell-based. The following applies: EML4-ALK A549 cells compared with parental (control) A549 cells, 4 days treatment, 0.98-500 nM. The procedure:
Parental cells and EML4-ALK A549 NSCLC cells (5,000 cells) were plated in a 96-well tissue culture plate. Cells were treated with an array of ½ dilutions of LNS8801 for 4 days with 4 technical replicates for each condition (500 nM, 250 nM, 125 nM, 62.5 nM, 31.25 nM, […], 7.81 nM, […], 1.95 nM, 0.98 nM and 0 nM). After 4 days, relative viable cells were determined by Incubating cells with CCK-8 proliferation dye for 1 hour and measuring absorbance at 450 nm. Relative cell numbers were calculated by subtracting baseline absorbance of the media followed by normalization to the 0 nM treated control wells.

Test [2] deals with Crizotinib resistant EML4-ALK A549 NSCLC cells. Briefly: CCK-8 proliferation assay of Crizotinib naive or resistant EML4-ALK A549 NSCLC cells. The format is cell-based. The following applies: 4 days treatment, normalized to 0 nM control. The protocol: Cells were treated with an array of […] dilutions of LNS8801 for 4 days with 4 technical replicates for each condition (500 nM, 250 nM, 125 nM, 62.5 nM, 31.25 nM, 15.63 nM, 7.81 nM, 3.91 nM, 1.95 nM, 0.98 nM and 0 nM). After 4 days, relative viable cells were determined by incubating cells with CCK-8 proliferation dye for 1 hour, and measuring absorbance at 450 nm. Relative cell numbers were calculated by subtracting baseline absorbance of the media followed by normalization to the 0 nM treated control wells.
After 4 days, relative viable cells were determined by incubating cells with CCK-8 proliferation dye for 1 hour, and measuring absorbance at 450 nm. Relative cell numbers were calculated by subtracting baseline absorbance of the media followed by normalization to the 0 nM treated control wells.
On the technique in general: Tetrazolium assays rely on reduction of a dye to a coloured formazan, in cell work by metabolically active cells.

“Also recorded” adds a separate entry of the source.

Regarding `CC(=O)c1ccc2c(c1)[C@@H]1C=CC[C@@H]1[C@H](c1cc3c(cc1Br)OCO3)N2` [LNS8801], the “cell viability (relative viable cells)” value in test [1] is given as “effectively reduced EML4-ALK A549 cell viability over control A549 cells; also recorded: ALK+ NSCLC cells are more sensitive to LNS8801 than isogenic controls”. In test [2], the “relative viability of Crizotinib-resistant cells” value is recorded as “able to effectively reduce viability; also recorded: has activity in the setting of ALK-inhibitor resistance”.

These data come from patent US20240376547A1, “ONCOLOGIC VARIATIONS ASSOCIATED WITH CANCER AND METHODS OF TREATMENT” (LINNAEUS THERAPEUTICS, INC., priority 2021, published 2024).
